Laboratory results published in patent US20150174145A1, “Pharmaceutical compounds with the structure of ionic salts with antibiotic and anticancer action” (priority 2013, published 2015).

How the values were obtained:
E. coli ATCC 25922 [1] = experiment: Growing rates in presence and absence of compound; format: cell-based, Escherichia coli; conditions: E. coli ATCC 25922, conc. tested 0.5 mM
Protocol: (§1) These bacteria were tested in Vitek2 systems from bioMérieux. Bacteria were grown on Trypticase soy agar for 24 hours at 37° C. prior to each test. The bacteria assays were made in Tryptic Soy Broth.

S. epidermis [2] = experiment: Minimum inhibitory concentration, ampicillin sensitive strains; format: cell-based, Staphylococcus epidermidis; conditions: Staphylococcus epidermidis; S. epidermis, Gram-positive, ampicillin sensitive; read-out: Minimum inhibitory concentrations
Protocol: (§2) Each one of the 24 combinations of the ionic liquids were tested with following 9 bacteria: • Escherichia coli ATCC25922 • Staphylococcus aureus ATCC25923 • Klebsiella pneumonia • Staphylococcus epidermidis • Enterococcus fecalis • E. coli Tem CTXM9 • E. coli CTXM2 • E. coli AmpCMox2 • Saccharomyces cerevisiae PYCC 4072
as §1

K. pneumonia = experiment: Growing rates in presence and absence of compound; format: cell-based, Klebsiella pneumonia; conditions: conc. tested 0.5 mM
Protocol: as §1

[3] = tested on: T47D (ductal breast epithelial tumour cell line); experiment: cells; format: cell-based; conditions: Homo sapiens; T47D, MTT assay
Protocol: (§3) At about 70-80% confluence, cells were enzymatically detached with 0.05% trypsin and 0.5 mM EDTA and seeded at 10^4 cells cm^−2.
(§4) After an attachment period of 24 hours, the culture medium was renewed, and supplemented with different concentrations (0.005-500 mM) of the ampicillin derived ionic liquid. Cell cultures were maintained in a 5% CO2 humidified atmosphere at 37° C.
(§5) Cellular viability/proliferation was assessed by the MTT assay at days 1, 3 and 5 of the culture. This assay is based on the reduction of 3-(4,5-dimethylthiazol-2-yl)-2,5-diphenyltetrazolium bromide (MTT) to a purple formazan product by viable cells.
(§6) Shortly, cultured cells were incubated at 37° C. with 0.5 mg ml −1 of MTT for 4 hours. The culture medium was then removed; the stained product dissolved with dimethylsulfoxide, and absorbance determined at 550 nm in an ELISA plate rewader. Results were expressed as absorbance per cm2.
(§7) The values of the […] (IC50) and the median lethal dose (LD50) were obtained from nonlinear regression analysis of concentration effect curves using the GGraphPad Prism Software.
(§8) It is used to measure the efficacy of a compound in inhibiting any biochemical or biological function.

SF (skin fibroblasts) = experiment: MTT cellular viability/proliferation, primary human cells; format: cell-based; conditions: Homo sapiens, Skin fibroblast, MTT assay
Protocol: as §3, §4, §5, §6, §7, §8

[4] = tested on: gingival fibroblasts (GF); experiment: as above; format: cell-based; conditions: Homo sapiens, Fibroblast, MTT assay
Protocol: as §3, §4, §5, §6, §7, §8

S. epidermis [5] = experiment: Growing rates in presence and absence of compound; format: cell-based, Staphylococcus epidermidis; conditions: conc. tested 0.005 mM
Protocol: as §1

E. fecalis [6] = experiment: Minimum inhibitory concentration, ampicillin sensitive strains; format: cell-based, Enterococcus fecalis; conditions: Enterococcus; E. fecalis, Gram-positive, ampicillin sensitive; read-out: Minimum inhibitory concentrations
Protocol: as §2, §1

K. pneumoniae = experiment: as above; format: cell-based, Klebsiella pneumonia; conditions: K. pneumoniae, Gram-negative, ampicillin sensitive
Protocol: as §2, §1

[7] = tested on: HepG2 (hepatocellular liver carcinoma cell); experiment: MTT cellular viability/proliferation, cancer cell lines; format: cell-based, human; conditions: Homo sapiens; HepG2, MTT assay
Protocol: as §3, §4, §5, §6, §7, §8

[8] = tested on: PC3 (prostate cancer cell line); experiment: as above; format: cell-based, human; conditions: Homo sapiens; PC3, MTT assay
Protocol: as §3, §4, §5, §6, §7, §8

[9] = tested on: RKO (colon cancer cell line); experiment: as above; format: cell-based, human; conditions: Homo sapiens, MTT assay
Protocol: as §3, §4, §5, §6, §7, §8

[10] = tested on: MG63 (osteosarcoma cell line); experiment: as above; format: cell-based, human; conditions: Homo sapiens, MG-63; MG63, MTT assay
Protocol: as §3, §4, §5, §6, §7, §8

E. fecalis [11] = experiment: Growing rates in presence and absence of compound; format: cell-based, Enterococcus fecalis; conditions: conc. tested 0.005 mM
Protocol: as §1

E. coli ATCC 25922 [12] = experiment: Minimum inhibitory concentration, ampicillin sensitive strains; format: cell-based, Escherichia coli; conditions: Escherichia coli, ATCC25922; E. coli ATCC 25922, Gram-negative, ampicillin sensitive; read-out: Minimum inhibitory concentrations
Protocol: as §2, §1

E. coli TEM CTX M9 [13] = experiment: Growing rates in presence and absence of compound; format: cell-based; conditions: E. coli TEM CTX M9, conc. tested 0.05 mM
Protocol: as §1

E. coli AmpC MOX2 = experiment: Growing rates in presence and absence of compound; format: cell-based; conditions: E. coli AmpC Mox2, conc. tested 0.05 mM
Protocol: as §1

E. coli CTX M2 = experiment: Minimum inhibitory concentration, ampicillin resistant strains; format: cell-based; conditions: Escherichia coli, CTXM2; E. coli CTX M2, ampicillin resistant; read-out: Minimum inhibitory concentrations
Protocol: as §2, §1

E. coli TEM CTX M9 [14] = experiment: as above; format: cell-based; conditions: Escherichia coli; E. coli TEM CTX M9, ampicillin resistant; read-out: Minimum inhibitory concentrations
Protocol: as §2, §1

S. aureus ATCC 25923 = experiment: Growing rates in presence and absence of compound; format: cell-based, Staphylococcus aureus; conditions: S. aureus ATCC 25923, conc. tested 0.0005 mM
Protocol: as §1

SMILES: CC1(C)S[C@@H]2[C@H](NC(=O)[C@H](N)c3ccccc3)C(=O)N2[C@H]1C(=O)O [[P6,6,6,14][Amp]]
- Growing rate with compound (E. coli ATCC 25922 [1]): 0.0007 ± 0.0001 min⁻¹
- Decreasing rate (E. coli ATCC 25922 [1]; with compound vs no compound): 0.035
- MIC (S. epidermis [2]): 50 µM
- Growing rate with compound (K. pneumonia): 0.00045 ± 0.00007 min⁻¹
- Decreasing rate (K. pneumonia; with compound vs no compound): 0.18
- IC50 [3]: 0.264 µM
- IC50 (SF (skin fibroblasts)): 0.249 µM
- IC50 [4]: 0.173 µM
- Growing rate with compound (S. epidermis [5]): 0.0006 ± 0.0000 min⁻¹
- Decreasing rate (S. epidermis [5]; with compound vs no compound): 0.13
- MIC (E. fecalis [6]): 50 µM
- Minimum inhibitory concentrations (K. pneumoniae): 5000 µM
- MIC (K. pneumoniae; Klebsiella pneumoniae, read-out: Minimum inhibitory concentrations): 5000 µM
- IC50 [7]: 0.322 µM
- IC50 [8]: 0.354 µM
- IC50 [9]: 0.18 µM
- IC50 [10]: 0.312 µM
- Growing rate with compound (E. fecalis [11]): 0.0009 ± 0.0004 min⁻¹
- Decreasing rate (E. fecalis [11]; with compound vs no compound): 0.28
- MIC (E. coli ATCC 25922 [12]): 2500 µM
- Growing rate with compound (E. coli TEM CTX M9 [13]): 0.00067 ± 0.00006 min⁻¹
- Decreasing rate (E. coli TEM CTX M9 [13]; with compound vs no compound): 0.20
- Growing rate with compound (E. coli AmpC MOX2): 0.00077 ± 0.00006 min⁻¹
- Decreasing rate (E. coli AmpC MOX2; with compound vs no compound): 0.24
- MIC (E. coli CTX M2): 500 µM
- MIC (E. coli TEM CTX M9 [14]): 500 µM
- Growing rate with compound (S. aureus ATCC 25923): 0.0004 ± 0.0003 min⁻¹
- Decreasing rate (S. aureus ATCC 25923; with compound vs no compound): 0.077
